Where only a bound is given, the exact number is not on record here.

Assay [1] concerns the target T1, Prostaglandin G/H synthase 2 (Homo sapiens, UniProt P35354).
T1 sequence (P35354 whole entry): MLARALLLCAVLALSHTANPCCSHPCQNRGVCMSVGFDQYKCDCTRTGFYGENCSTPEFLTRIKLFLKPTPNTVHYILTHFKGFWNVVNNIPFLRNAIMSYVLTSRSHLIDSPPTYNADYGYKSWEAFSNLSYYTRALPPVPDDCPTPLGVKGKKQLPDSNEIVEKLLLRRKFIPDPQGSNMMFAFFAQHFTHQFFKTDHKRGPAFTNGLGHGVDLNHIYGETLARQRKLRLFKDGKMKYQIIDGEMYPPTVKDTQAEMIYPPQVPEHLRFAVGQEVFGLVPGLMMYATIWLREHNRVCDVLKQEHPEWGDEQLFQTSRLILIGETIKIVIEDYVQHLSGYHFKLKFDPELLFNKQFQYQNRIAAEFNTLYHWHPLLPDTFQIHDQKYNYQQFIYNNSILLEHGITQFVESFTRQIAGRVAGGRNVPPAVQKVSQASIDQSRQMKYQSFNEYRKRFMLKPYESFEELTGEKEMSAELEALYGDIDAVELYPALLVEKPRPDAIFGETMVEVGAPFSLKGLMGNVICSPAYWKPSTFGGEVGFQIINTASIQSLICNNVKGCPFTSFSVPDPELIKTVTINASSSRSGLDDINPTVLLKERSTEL
Kind of assay: Inhibition of COX2 in human whole blood assessed as LPS-induced PGE2 production incubated 15 mins prior to LPS challenge measured after 24 hrs by EIA.

Assay [2] addresses T2, Prostaglandin G/H synthase 2 (Rattus norvegicus, UniProt P35355).
T2 sequence (P35355 whole entry): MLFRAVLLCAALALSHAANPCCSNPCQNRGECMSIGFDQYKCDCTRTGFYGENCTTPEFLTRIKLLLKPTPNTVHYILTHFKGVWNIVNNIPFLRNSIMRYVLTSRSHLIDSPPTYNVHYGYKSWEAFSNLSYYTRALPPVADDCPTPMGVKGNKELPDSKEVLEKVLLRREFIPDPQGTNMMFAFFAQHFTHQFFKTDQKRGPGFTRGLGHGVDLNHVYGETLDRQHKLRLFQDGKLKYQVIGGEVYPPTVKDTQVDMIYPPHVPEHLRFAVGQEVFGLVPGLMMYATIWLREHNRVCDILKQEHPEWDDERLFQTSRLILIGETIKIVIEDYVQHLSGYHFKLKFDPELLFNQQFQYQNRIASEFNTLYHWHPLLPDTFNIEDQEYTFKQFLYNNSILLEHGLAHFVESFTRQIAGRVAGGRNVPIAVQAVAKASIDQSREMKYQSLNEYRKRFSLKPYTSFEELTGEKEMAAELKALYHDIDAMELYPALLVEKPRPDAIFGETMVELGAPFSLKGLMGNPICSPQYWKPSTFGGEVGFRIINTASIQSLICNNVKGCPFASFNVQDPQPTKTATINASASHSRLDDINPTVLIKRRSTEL
The assay can be described thus: Inhibition of COX2 in rat synovial fibroblast assessed as inhibition of IL-1-mediated PGE2 production.

The target of assay [3] is T1, Prostaglandin G/H synthase 2. Kind of assay: Inhibition of COX2 in human whole blood assessed as PGE2 level incubated for 15 mins prior to substrate addition measured after 10 mins by ELISA.
Assay [4] has the same target. The assay can be described thus: Inhibition of COX2 in human fetal fibroblast assessed as inhibition of IL-1beta-mediated PGE2 production after 50 mins by ELISA.
Assay [5] has as its target T3, Prostaglandin G/H synthase 2 (Canis lupus familiaris, UniProt Q8SPQ9).
T3 sequence (Q8SPQ9 whole entry): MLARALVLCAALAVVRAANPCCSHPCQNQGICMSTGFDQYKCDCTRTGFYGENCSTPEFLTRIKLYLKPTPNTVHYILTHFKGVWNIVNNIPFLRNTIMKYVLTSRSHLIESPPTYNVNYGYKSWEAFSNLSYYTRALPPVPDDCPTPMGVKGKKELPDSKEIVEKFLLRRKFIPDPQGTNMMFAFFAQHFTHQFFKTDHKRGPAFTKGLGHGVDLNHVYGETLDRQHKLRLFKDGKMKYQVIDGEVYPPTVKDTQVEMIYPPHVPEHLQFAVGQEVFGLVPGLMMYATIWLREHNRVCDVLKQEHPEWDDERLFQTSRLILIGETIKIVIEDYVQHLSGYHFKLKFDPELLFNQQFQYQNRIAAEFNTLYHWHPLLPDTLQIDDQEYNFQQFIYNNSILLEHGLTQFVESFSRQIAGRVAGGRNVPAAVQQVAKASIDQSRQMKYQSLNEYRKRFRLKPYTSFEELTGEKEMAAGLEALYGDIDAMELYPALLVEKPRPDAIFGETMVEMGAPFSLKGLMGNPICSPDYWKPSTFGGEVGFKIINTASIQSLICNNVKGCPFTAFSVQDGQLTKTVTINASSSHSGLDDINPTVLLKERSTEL
Kind of assay: Inhibition of COX2 in dog whole blood assessed as LPS-induced PGE2 production.

`O=C(N[C@H]1CCC[C@@H]1OCc1ccccc1)C1CCN(c2nc3cc(Cl)ccc3o2)CC1`: the IC50 (in general, the concentration needed to halve the response being measured) in assay [1] is 0.934 µM; in assay [2] it was over 30 µM; in assay [3], 7.56 µM; in assay [4], 0.035 µM; in assay [5] it was 1.23 µM.

`O=C(NC1CCCC1)C1CCN(c2nc3cc(Cl)ccc3o2)CC1`: the half-inhibitory concentration (IC50) in assay [4] turned out to be 1.01 µM.

In the case of `O=C(N[C@@H]1CCC[C@H]1OCc1ccccc1)C1CCN(c2nc3cc(Cl)ccc3o2)CC1`, the IC50 in assay [3] was found to be 27.4 µM; in assay [4], 0.296 µM.

For `O=C(N[C@H]1CCC[C@H]1OCc1ccccc1)C1CCN(c2nc3cc(Cl)ccc3o2)CC1`, the values for the IC50 in assay [3] and in assay [4] were 76.6 µM and 0.618 µM, respectively.

`O=C(N[C@H]1CCC[C@@H]1COc1ccccc1)C1CCN(c2nc3cc(Cl)ccc3o2)CC1`: the values for the 50% inhibitory concentration (IC50) in assay [3] and in assay [4] were over 33.6 µM and 0.085 µM, respectively.

Consider `O=C(N[C@H]1CC[C@@H](CO)CC1)C1CCN(c2nc3cc(Cl)ccc3o2)CC1`, for which the IC50 in assay [3] was 11.1 µM; in assay [4] it was 1.26 µM.

For the compound `O=C(N[C@H]1CC[C@H](CO)CC1)C1CCN(c2nc3cc(Cl)ccc3o2)CC1`, the 50% inhibitory concentration (IC50) in assay [4] is over 10 µM.
